Measurements as given in publication PMC7932537, “Quantitative profiling of protease specificity” (PLoS Computational Biology, 2021).

How the values were obtained:
MMP-2 [1] = molecular target: T1, MMP-2 (Homo sapiens, UniProt P08253); assay: K(obs) of individual phage substrates (set of 1369); format: biochemical; conditions: MMP2
T1 sequence (P08253 110-660): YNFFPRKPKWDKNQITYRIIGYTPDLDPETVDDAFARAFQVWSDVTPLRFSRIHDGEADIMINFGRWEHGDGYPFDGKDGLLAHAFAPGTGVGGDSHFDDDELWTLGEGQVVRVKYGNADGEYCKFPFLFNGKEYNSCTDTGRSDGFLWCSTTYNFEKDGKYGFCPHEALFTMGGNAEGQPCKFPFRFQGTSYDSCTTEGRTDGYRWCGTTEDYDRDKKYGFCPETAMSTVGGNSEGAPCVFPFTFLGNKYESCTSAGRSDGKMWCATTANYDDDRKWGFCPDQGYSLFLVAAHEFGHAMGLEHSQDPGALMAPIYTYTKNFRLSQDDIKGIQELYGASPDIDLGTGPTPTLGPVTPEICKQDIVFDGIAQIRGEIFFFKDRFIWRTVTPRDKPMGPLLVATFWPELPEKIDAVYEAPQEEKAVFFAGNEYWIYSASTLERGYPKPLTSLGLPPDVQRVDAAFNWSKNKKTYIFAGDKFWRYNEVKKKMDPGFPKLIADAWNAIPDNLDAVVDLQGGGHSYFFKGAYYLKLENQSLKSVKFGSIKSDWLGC

MMP-2 [2] = assay: Substrate phage display with NGS: relative probability (RP) of P3-P1' tetramer clusters; format: biochemical, human; conditions: MMP2;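 also: ratio of tetramer probability after protease selection to that in naive phage library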
MMP-9 = MMP-9 (Homo sapiens, UniProt P14780); assay: K(obs) of individual phage substrates (set of 1369); format: biochemical; conditions: MMP9
[3] = individual phage substrates, set of 1369 peptides, cleavage position marked by hyphen in sequence
[4] = RP of the P3-P1' tetramer contained in the substrate (substrate phage display with NGS)
[5] = individual phage substrates, set of 1369 peptides, hyphen in sequence marks cleavage position
[6] = individual phage substrate of the set of 1369 peptides, cleavage position marked by '-'
[7] = RP of the P3-P1' tetramer contained in the substrate
[8] = individual phage substrate of the set of 1369 peptides, dash in the sequence marks the cleavage position

Chain of MMP-9 (P14780 94-707): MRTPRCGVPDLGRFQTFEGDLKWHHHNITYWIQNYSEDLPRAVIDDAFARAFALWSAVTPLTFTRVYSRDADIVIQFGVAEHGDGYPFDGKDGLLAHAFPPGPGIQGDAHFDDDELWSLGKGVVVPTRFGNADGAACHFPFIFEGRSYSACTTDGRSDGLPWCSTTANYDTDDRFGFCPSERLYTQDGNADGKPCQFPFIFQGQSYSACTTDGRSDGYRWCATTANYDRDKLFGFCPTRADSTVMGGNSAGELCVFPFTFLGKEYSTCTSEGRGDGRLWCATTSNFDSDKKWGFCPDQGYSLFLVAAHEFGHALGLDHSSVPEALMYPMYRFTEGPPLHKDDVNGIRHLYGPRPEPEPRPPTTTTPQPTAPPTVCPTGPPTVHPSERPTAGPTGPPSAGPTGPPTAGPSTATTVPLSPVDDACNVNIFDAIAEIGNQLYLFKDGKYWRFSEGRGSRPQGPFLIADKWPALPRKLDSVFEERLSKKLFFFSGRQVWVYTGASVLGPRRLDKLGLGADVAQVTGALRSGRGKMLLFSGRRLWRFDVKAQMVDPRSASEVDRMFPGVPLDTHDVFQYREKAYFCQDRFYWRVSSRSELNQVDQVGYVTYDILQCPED

Substance	Kobs (MMP-2 [1]; [3]) [M⁻¹ s⁻¹]	relative probability (RP) (MMP-2 [2]; [4])	Kobs (MMP-9; [5]) [M⁻¹ s⁻¹]	Kobs (MMP-2 [1]; [6]) [M⁻¹ s⁻¹]	relative probability (RP) (MMP-2 [2]; [7])	Kobs (MMP-9; [8]) [M⁻¹ s⁻¹]
LWYGH-LTASG	5090.5	11.3746	0			
GVLRM-LSTAS				0	9.0498	951.362
PRVML-LTASG	142.481	0.4692	1112.44			
WPMAK-LTASG				12792.1	21.5229	451.441
GSGRH-LIKVT	386.839	3.598	27.918			
VDIRM-LTASG				5889.62	12.7446	3079.62
ATPES-LTASG				8941.32	26.0767	6131.32
AKVMS-LTASG	1513.13	14.6983	2218.08			
RNGLA-LTASG	0	0.6848	0			
GWWMN-LTASG	1071.29	0	836.403			
VFVSN-LTASG	12792.1	33.8801	9740.44			
SGPSG-MRVTA	7386.83	32.7604	6688.74			
SGPQS-WRTTA	7815.03	25.7009	3165.09			
GSPYG-LLTAS				8941.32	32.9966	12792.1
AMPLH-MTASG	6688.74	30.0095	7386.83			
RAPSM-LTASG	5889.62	33.0235	7815.03			
VKPWA-LTASG				5667.28	31.9211	10866.7
RQLAA-ITASG				4205.91	28.8382	355.093
RLLLN-MTASG	2916.17	13.7728	1112.44			
HIWQN-LTASG	654.784	6.292	0			
GTLRS-LITAS				12792.1	15.1373	1465.65
SGGSG-LRILQ				0	1.9698	0

Substance	Kobs (MMP-2 [1]; [3]) [M⁻¹ s⁻¹]	relative probability (RP) (MMP-2 [2]; [4])	Kobs (MMP-9; [5]) [M⁻¹ s⁻¹]	Kobs (MMP-2 [1]; [6]) [M⁻¹ s⁻¹]	relative probability (RP) (MMP-2 [2]; [7])	Kobs (MMP-9; [8]) [M⁻¹ s⁻¹]
VRPRP-FTASG				12792.1	32.5323	10866.7
FSLRQ-MTASG	990.764	8.677	690.17			
SSVWH-ITASG				323.705	1.931	836.403
EIWLP-ITASG	951.362	0.6666	142.481			
SGPYP-LWKTA				2218.08	30.8058	3079.62
DPWRA-LTASG				6396.07	22.4074	6396.07
ERIYA-LTASG	2687.73	6.967	7386.83			
YDVYN-LTASG				3253.29	19.1818	7815.03
GKPAS-LDTAS	1239.69	36.4285	0			
RSHAS-LTASG	12792.1	26.2573	0			
SGPAW-MKGTA	9740.44	34.3571	7386.83			
HLAYH-MTASG	2476.66	3.76	6396.07			
GDPYS-LRTAS				4922.1	30.7259	12792.1
HAHAS-LTASG	12792.1	26.2573	142.481			
GTPMQ-LYTAS				5667.28	27.6586	12792.1
GVARP-LSTAS				5090.5	27.8706	1610.61
KAVNH-LTASG				1763.55	12.8499	0
QSPRM-LTASG				10866.7	30.5973	10866.7
PTFAH-LTASG				9740.44	19.6504	585.336
GAPWG-IHTAS				12792.1	25.1508	12792.1
SGMGH-LLHTA				654.784	26.7019	0
TKMAW-LTASG				7015.91	31.5866	1513.13
